Data published in US10266526B2, “Substituted 1,2,3-triazoles as SMYD inhibitors for treating cancer” (EPIZYME, INC., priority 2014, dated 2019).
Where two headings read alike, the source gives them in different places.

Biological target: SMYD3 (Homo sapiens (Human), UniProt Q9H7B4)
Assay: SMYD3 biochemical assay (SMYD3 enzyme assay on MEKK2 protein substrate, 3H-SAM scintillation proximity assay)
Settings: read-out: SMYD3 Biochem IC50
Procedure, shortened: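 Native full-length human SMYD3, expressed in E. coli, was preincubated with compound for 30 min at room temperature in 25 mM Tris-Cl pH 8.0, 1 mM TCEP, 0.005% BSG and 0.005% Tween 20. ³H-SAM plus GST-MEKK2 then started the reaction. It was stopped with unlabeled SAM (100 uM final), and methylated MEKK2 was read by SPA.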

[1] = Table 1A, average of n = 1 to n = 50

SMYD3, sequence (Q9H7B4 whole entry): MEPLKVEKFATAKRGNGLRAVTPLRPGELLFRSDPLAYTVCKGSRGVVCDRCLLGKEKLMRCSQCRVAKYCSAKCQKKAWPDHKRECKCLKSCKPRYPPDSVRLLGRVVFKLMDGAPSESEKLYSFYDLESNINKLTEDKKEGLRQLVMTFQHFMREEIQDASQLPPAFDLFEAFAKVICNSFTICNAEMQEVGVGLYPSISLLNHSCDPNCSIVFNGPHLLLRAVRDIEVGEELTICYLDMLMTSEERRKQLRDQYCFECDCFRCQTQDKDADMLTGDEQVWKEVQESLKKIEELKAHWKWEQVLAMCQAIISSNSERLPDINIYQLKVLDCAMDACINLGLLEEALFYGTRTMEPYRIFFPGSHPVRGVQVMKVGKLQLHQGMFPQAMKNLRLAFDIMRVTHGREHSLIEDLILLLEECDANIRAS

IC50 [µM]	IC50 [1] [µM]	Structure (SMILES)
> 50		N[C@H]1CC[C@H](NC(=O)c2cncc(O)c2)CC1 [compound 515, N-((1r,4r)-4-aminocyclohexyl)-5-hydroxynicotinamide]
> 50		NCCC(=O)N[C@H]1CC[C@H](NC(=O)c2cn(CC(N)=O)nn2)CC1 [compound 516, 1-(2-amino-2-oxoethyl)-N-((1r,4r)-4-(3-aminopropanamido)cyclohexyl)-1H-1,2,3-triazole-4-carboxamide]
> 50		NC1CCC(NC(=O)c2c[nH]cn2)CC1 (centres unmarked) [compound 517, N-(4-aminocyclohexyl)-1H-imidazole-4-carboxamide]
> 50		NCCC(=O)NC1CCC(NC(=O)c2ncc[nH]2)CC1 (centres unmarked) [compound 518, N-(4-(3-aminopropanamido)cyclohexyl)-1H-imidazole-2-carboxamide]
> 50		Cc1cc2cc(C(=O)N[C@H]3CC[C@H](NC(=O)CCN)CC3)ccc2[nH]1 [compound 519, N-((1r,4r)-4-(3-aminopropanamido)cyclohexyl)-2-methyl-1H-indole-5-carboxamide]
> 50		Cc1cc2cc(C(=O)N[C@H]3CC[C@H](N)CC3)ccc2[nH]1 [compound 520, N-((1r,4r)-4-aminocyclohexyl)-2-methyl-1H-indole-5-carboxamide]
> 50		N[C@H]1CC[C@H](NC(=O)c2c[nH]cn2)CC1 [compound 521, N-((1r,4r)-4-aminocyclohexyl)-1H-imidazole-4-carboxamide]
	> 50	Cc1ncc(C(=O)N[C@H]2CC[C@H](N)CC2)[nH]1 [compound 522, N-((1r,4r)-4-aminocyclohexyl)-2-methyl-1H-imidazole-5-carboxamide]
	> 50	CC(NC(=O)c1nnc[nH]1)C1CCN(C(=O)[C@H](C)N)CC1 (stereo partly drawn) [compound 523, N-(1-(1-(L-alanyl)piperidin-4-yl)ethyl)-4H-1,2,4-triazole-3-carboxamide]
	> 50	NCCC(=O)N[C@H]1CC[C@H](NC(=O)c2nnc[nH]2)CC1 [compound 525, N-((1r,4r)-4-(3-aminopropanamido)cyclohexyl)-4H-1,2,4-triazole-3-carboxamide]
	> 50	CC(NC(=O)c1cc(Cl)[nH]n1)C1CCN(C(=O)[C@H](C)N)CC1 (stereo partly drawn) [compound 527, N-(1-(1-(L-alanyl)piperidin-4-yl)ethyl)-5-chloro-1H-pyrazole-3-carboxamide]
	> 50	NCCC(=O)N[C@H]1CC[C@H](NC(=O)c2cc(Cl)[nH]n2)CC1 [compound 528, N-((1r,4r)-4-(3-aminopropanamido)cyclohexyl)-5-chloro-1H-pyrazole-3-carboxamide]
	4.45	NCCC(=O)N[C@H]1CC[C@H](NC(=O)c2cc3cn[nH]c3cn2)CC1 [compound 529, N-((1r,4r)-4-(3-aminopropanamido)cyclohexyl)-1H-pyrazolo[3,4-c]pyridine-5-carboxamide]
	> 50	NCCC(=O)N[C@H]1CC[C@H](NC(=O)c2n[nH]c(=O)[nH]2)CC1 [compound 530, N-((1r,4r)-4-(3-aminopropanamido)cyclohexyl)-5-oxo-4,5-dihydro-1H-1,2,4-triazole-3-carboxamide]
	> 50	N[C@H]1CC[C@H](NC(=O)c2n[nH]c(=O)[nH]2)CC1 [compound 531, N-((1r,4r)-4-aminocyclohexyl)-5-oxo-4,5-dihydro-1H-1,2,4-triazole-3-carboxamide]
	> 50	NCCC(=O)N[C@H]1CC[C@H](NC(=O)c2nc3ccncc3s2)CC1 [compound 532, N-((1r,4r)-4-(3-aminopropanamido)cyclohexyl)thiazolo[5,4-c]pyridine-2-carboxamide]

IC50 [µM]	IC50 [1] [µM]	Structure (SMILES)
	> 50	N[C@H]1CC[C@H](NC(=O)c2nc3ccncc3s2)CC1 [compound 533, N-((1r,4r)-4-aminocyclohexyl)thiazolo[5,4-c]pyridine-2-carboxamide]
	> 50	CC(NC(=O)c1cn(CC(N)=O)nn1)C1CCN(C(=O)[C@H](C)N)CC1 (stereo partly drawn) [compound 534, N-(1-(1-(L-alanyl)piperidin-4-yl)ethyl)-1-(2-amino-2-oxoethyl)-1H-1,2,3-triazole-4-carboxamide]
	> 50	CCc1nc(C(=O)N[C@H]2CC[C@H](N)CC2)n[nH]1 [compound 535, N-((1r,4r)-4-aminocyclohexyl)-5-ethyl-1H-1,2,4-triazole-3-carboxamide]
	> 50	CCc1nnc(C(=O)N[C@H]2CC[C@H](NC(=O)CCN)CC2)[nH]1 [compound 536, N-((1r,4r)-4-(3-aminopropanamido)cyclohexyl)-5-ethyl-4H-1,2,4-triazole-3-carboxamide]
	> 50	NCCC(=O)N[C@H]1CC[C@H](NC(=O)c2c[nH]cn2)CC1 [compound 537, N-((1r,4r)-4-(3-aminopropanamido)cyclohexyl)-1H-imidazole-4-carboxamide]
	> 50	Cc1cc2cc(C(=O)NC(C)C3CCN(C(=O)[C@H](C)N)CC3)ccc2[nH]1 (stereo partly drawn) [compound 538, N-(1-(1-(L-alanyl)piperidin-4-yl)ethyl)-2-methyl-1H-indole-5-carboxamide]
	> 50	N[C@H]1CC[C@H](C(=O)N[C@H]2CC[C@H](NC(=O)c3ncn[nH]3)CC2)CC1 [compound 539, N-((1R,4r)-4-((1r,4R)-4-aminocyclohexane-1-carboxamido)cyclohexyl)-1H-1,2,4-triazole-5-carboxamide]
	> 50	NCCCC(=O)N[C@H]1CC[C@H](NC(=O)c2nnc[nH]2)CC1 [compound 540, N-((1r,4r)-4-(4-aminobutanamido)cyclohexyl)-4H-1,2,4-triazole-3-carboxamide]
	> 50	N[C@H]1CC[C@H](NC(=O)c2n[nH]c(Cl)n2)CC1 [compound 541, N-((1r,4r)-4-aminocyclohexyl)-5-chloro-1H-1,2,4-triazole-3-carboxamide]
	> 50	Cc1[nH]cnc1C(=O)N[C@H]1CC[C@H](N)CC1 [compound 542, N-((1r,4r)-4-aminocyclohexyl)-5-methyl-1H-imidazole-4-carboxamide]
	> 50	Cc1nnc(C(=O)N[C@H]2CC[C@H](NC(=O)CCN)CC2)[nH]1 [compound 543, N-((1r,4r)-4-(3-aminopropanamido)cyclohexyl)-5-methyl-4H-1,2,4-triazole-3-carboxamide]
	> 50	Cn1cnc(C(=O)N[C@H]2CC[C@H](N)CC2)n1 [compound 544, N-((1r,4r)-4-aminocyclohexyl)-1-methyl-1H-1,2,4-triazole-3-carboxamide]
	> 50	N[C@H]1CC[C@H](NC(=O)c2cc(Cl)[nH]n2)CC1 [compound 545, N-((1r,4r)-4-aminocyclohexyl)-5-chloro-1H-pyrazole-3-carboxamide]
	9.76	CC(NC(=O)c1n[nH]c(=O)[nH]1)C1CCN(C(=O)[C@H](C)N)CC1 (stereo partly drawn) [compound 546, N-(1-(1-(L-alanyl)piperidin-4-yl)ethyl)-5-oxo-4,5-dihydro-1H-1,2,4-triazole-3-carboxamide]
	> 50	O=C(NC1CCN(C(=O)CC2CCNCC2)CC1)c1nnc[nH]1 [compound 547, N-(1-(2-(piperidin-4-yl)acetyl)piperidin-4-yl)-4H-1,2,4-triazole-3-carboxamide]
	> 50	N[C@H]1CC[C@H](NC(=O)c2nc(I)n[nH]2)CC1 [compound 548, N-((1r,4r)-4-aminocyclohexyl)-3-iodo-1H-1,2,4-triazole-5-carboxamide]
